Measurements published in patent US9739791B2, “Methods for predicting and treating myocardial damage” (THE CLEVELAND CLINIC FOUNDATION, priority 2010, dated 2017).

Test system: infarct size after ischemia reperfusion (LAD ligation)
Test: LAD ligation/reperfusion, infarct size as percent area at risk after CoQ10 pretreatment
Type: in vivo
Conditions: WT mice; CoQ10 ip 1 mg/kg/day for 3 days prior to ischemia reperfusion; compared to WT controls; p=0.15
Experimental: FIG. 4 is a plot comparing infarct size as a percentage of AAR in WT and ApoAI-null mice given saline or Coenzyme Q10 daily for 3 days prior to ischemia induced by 30 minutes of LAD ligation and 3 hours of reperfusion (data represent mean±SD; n=4-6 per group; *p<0.0001 compared to strain-matched NT control).
All animal protocols were approved by the Animal Research Committee, and all animals were housed in the Association for Assessment and Accreditation of Laboratory Animal Care International-approved animal facility of the Cleveland Clinic. Anterior wall MI (AMT) was performed as recently described (Askari, A. T. et al., J. Exp. Med. 197:615-624, 2003). Briefly, AMI was induced in eight 20- to 25-g male littermate wild-type (C57BL/6J), ApoA1 heterozygote (ApoA1^+/−) or knockout (ApoA1^−/−) mice by ligation of the LAD 7-0 Prolene. Blanching and dysfunction of the anterior wall verified LAD ligation. After 30 minutes of LAD ligation, microsurgical scissors were used to cut the knot in the ligature at the level of the myocardium, and animals subsequently underwent reperfusion for 3 hours. […] Animals were kept on ventilator for the entire 3 hours of reperfusion and subsequently analyzed for area at risk and infarct size using 1% solution of 2,3,5-triphenyltetrazolium chloride (TTC) at 37° C. […]

COC1=C(OC)C(=O)C(C/C=C(\C)CC/C=C(\C)CC/C=C(\C)CC/C=C(\C)CC/C=C(\C)CC/C=C(\C)CC/C=C(\C)CC/C=C(\C)CC/C=C(\C)CCC=C(C)C)=C(C)C1=O [CoQ10, Coenzyme Q10]
decrease in IS/% AAR: non-significant trend
